Experimental data as given in patent publication US20130197023A1, “NEUROPROTECTION BY PHARMACOLOGICAL CHAPERONING OF NICOTINIC ACETYLCHOLINE RECEPTORS” (priority 2012, published 2013).
Where “and” joins values, the source holds several entries; their conditions need not be identical. Identical values can stand only once. Entries after “also recorded” stand apart in the source; their conditions may differ. Like-named read-outs stand apart in the source and are kept apart here.

What was measured:
[1] = test system: NMDA receptor; settings: in vivo; cited from earlier work
[2] = target: T1, α4-eGFPβ2-wt nAChRs (Mus musculus, UniProt O70174+Q9ERK7); type: cell-based
T1 construct: expressed in transfected cells; host or cells: mouse Neuro-2a cells
T1 sequence (O70174 31-629): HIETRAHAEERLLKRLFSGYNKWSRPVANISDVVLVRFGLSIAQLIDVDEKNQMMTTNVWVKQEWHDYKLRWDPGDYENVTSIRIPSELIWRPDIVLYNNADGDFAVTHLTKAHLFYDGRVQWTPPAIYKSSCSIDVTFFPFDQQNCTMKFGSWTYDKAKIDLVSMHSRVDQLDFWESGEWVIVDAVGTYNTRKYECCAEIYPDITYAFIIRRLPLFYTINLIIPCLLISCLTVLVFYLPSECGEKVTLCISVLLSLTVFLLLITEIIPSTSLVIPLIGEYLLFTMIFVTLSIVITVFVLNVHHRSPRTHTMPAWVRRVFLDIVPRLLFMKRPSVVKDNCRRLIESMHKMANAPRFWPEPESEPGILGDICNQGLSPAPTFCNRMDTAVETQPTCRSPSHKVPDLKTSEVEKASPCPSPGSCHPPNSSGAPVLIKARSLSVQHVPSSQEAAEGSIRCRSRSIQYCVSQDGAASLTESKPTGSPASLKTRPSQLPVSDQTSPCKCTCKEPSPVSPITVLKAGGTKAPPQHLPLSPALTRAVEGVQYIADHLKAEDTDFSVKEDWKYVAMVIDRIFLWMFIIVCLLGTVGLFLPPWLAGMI
T1 sequence (Q9ERK7 26-501): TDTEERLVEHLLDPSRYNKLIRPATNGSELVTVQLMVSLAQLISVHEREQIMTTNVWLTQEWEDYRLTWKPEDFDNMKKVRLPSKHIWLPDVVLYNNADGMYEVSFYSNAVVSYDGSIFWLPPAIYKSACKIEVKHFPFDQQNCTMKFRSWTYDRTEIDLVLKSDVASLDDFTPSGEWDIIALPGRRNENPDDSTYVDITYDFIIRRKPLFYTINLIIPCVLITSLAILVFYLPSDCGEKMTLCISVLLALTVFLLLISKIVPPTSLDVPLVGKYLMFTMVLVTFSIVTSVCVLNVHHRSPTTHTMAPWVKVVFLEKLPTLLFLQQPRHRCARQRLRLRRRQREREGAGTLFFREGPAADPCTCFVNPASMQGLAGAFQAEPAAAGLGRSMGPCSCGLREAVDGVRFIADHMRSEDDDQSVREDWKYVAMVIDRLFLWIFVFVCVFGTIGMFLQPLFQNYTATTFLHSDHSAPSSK
Description: Neuro-2a cells were plated on 12 mm glass coverslips within 35 mm plastic bottom cell culture dishes. The following day, cells were transfected with 500 ng α4-eGFP and 500 ng β2-wt nAChR subunits. 24 to 48 hr later, glass coverslips were transferred to dishes on the microscope stage. Green fluorescence was visualized with an upright microscope (BX50WI, Olympus) and UV illumination with appropriate excitation filters. Agonist-induced currents were tested at a holding potential of −65 mV using a focal, relatively rapid drug application system designed to minimize desensitization (Xiao et al., 2009). We applied drugs from the lowest to highest concentration at 3 min intervals to minimize desensitization. Whole-cell patch-clamp recordings were with a MultiClamp 700B amplifier, a 1322 analog-to-digital converter, and pCLAMP 9.2 software (all from Axon Instruments, Molecular Devices). Data were sampled at 10 kHz and filtered at 2 kHz.
The intrapipette solution contained (in mM): 135 potassium gluconate, 5 KCl, 5 EGTA, 0.5 CaCl2, 10 HEPES, 2 Mg-ATP, and 0.1 GTP; the pH was adjusted to 7.2 with Tris base and the osmolarity to 300 mOsm with sucrose. The extracellular solution contained (in mM): 140 NaCl, 5 KCl, 2 CaCl2, 1 MgCl2, 10 HEPES, and 10 glucose; pH was adjusted to 7.3 with Tris base. The Nernst potential for Cl^− in the intrapipette solution is −82.9 mV. The bath was continuously perfused with extracellular solution (ECS) at room temperature (23±1° C.). The patch electrodes had resistances of 5 to 8 MΩ. The junction potential between the patch pipette and the bath solutions was nulled just before forming a gΩ seal. Series resistance was monitored and compensated by 70-80% throughout recordings. The data were ignored if the series resistance (15-30 MΩ) changed by >20% during the recording session.

[3] = target: T1, α4-eGFPβ2-wt nAChRs; type: cell-based; remark: listed apart in the source
From the text: Details of the quantification method have been previously described (Srinivasan et al., 2011). Briefly, PM fluorescence was extracted as follows: Raw TIRF images were converted to background-subtracted images and the ER fluorescence was thresholded and selected. ER fluorescence was then subtracted from the original image to generate images with PM fluorescence signals. These procedures yielded a dataset of several hundred thousand pixel intensities over the 15-50 cells in each experimental group. Fluorescence intensities are simply the sum of pixel values for either the PM or the ER or the ER+PM (using whole TIRF footprint images). Mean PM fluorescence intensity was derived by dividing the total fluorescence intensity for each experimental group by the number of imaged cells and normalized to intensity of untreated cells. Ratios of fluorescence intensities for the whole TIRF footprint (ER+PM) to ER were used to determine the post-Golgi fraction of receptors. For PM integrated density measurements, rather than plotting SEMs (which would be indistinguishably small on the plots), we have used “error bars” to depict 99% confidence intervals based on a two-tailed t-test. Measurements from drug treated cells were normalized to values of untreated cells imaged on the same day. DHβE TIRF experiments were performed on a different day from nicotine and cytisine experiments.

[4] = test system: ATF6; type: cell-based, mouse
Description: (§1) Mouse Neuro-2a cells were cultured using standard tissue culture techniques and maintained in 45% DMEM, 45% OptiMEM and 10% FBS. Plasmid concentrations used for transfection were as follows: 500 ng of each nAChR subunit, 75 ng of pCS2-mcherry, 250 ng of Sec24D constructs, 100 ng of pDsRed2-ER, 250 ng of GaIT-eCFP and 500 ng of ATF6-eGFP. 90,000 cells were plated in poly-D-lysine coated 35 mm MatTek glass bottom imaging dishes. The following day, plasmid DNA was mixed with cationic lipids by adding appropriate DNA concentrations to 4 μl of Expressfect transfection reagent in 200 μl DMEM final volume and incubated for 20 min at room temperature to form cationic lipid-DNA complexes. DMEM+DNA-lipid complexes were added to Neuro-2a cells in 1 ml of DMEM+10% FBS and incubated at 37° C. for 4 h. Dishes were rinsed 2× with DMEM, then filled with 3 ml of DMEM+10% FBS and incubated at 37° C. for 48 h. Nicotine, cytisine or DHβE was added at appropriate concentrations during the change of medium following 4 h incubation with Expressfect-plasmid DNA complexes.

[5] = test system: ER exit sites (ERES); type: cell-based, mouse
Description: as §1
Neuro-2a cells were co-transfected with 500 ng each of α4-mcherry and β2-wt nAChR subunits and 250 ng of the ERES marker, Sec24D-eGFP. Each cell was focused to a plane where the maximum ERES were visualized. Sequential images of eGFP and mcherry fluorescence were obtained and linearly unmixed. For quantification, ERES regions of interest (ROIs) were demarcated using intensity-based thresholding and counted for each cell using the particle analysis feature in ImageJ version 1.44 or later. The fluorescence intensity was obtained for each ERES body within the cells and average ERES intensity was plotted. Error bars for ERES measurements are ±standard error of mean (SEM) and p values are based on a 2-tailed t test.

[6] = target: α4β2 nAChRs (Mus musculus, UniProt O70174+Q9ERK7)
Chain of α4β2 nAChRs (O70174 31-629): as the sequence (O70174 31-629) above
Chain of α4β2 nAChRs (Q9ERK7 26-501): as the sequence (Q9ERK7 26-501) above
From the text: For NFRET experiments, Neuro-2a cells were transfected with GaIT-eCFP+α4-mcherry+β2-eGFP subunits. GaIT-eCFP was used to label the TG, TGN (Schaub et al., 2006). Cells transfected with α4-mcherryβ2wt or α4wtβ2-eGFP nAChRs were included in every imaging session to control for pixel saturation and spectral bleedthrough. Live cells were imaged using an Eclipse C1si laser scanning confocal microscope. During image acquisition, cells were focused to a plane where the GaIT-eCFP fluorescence was best visualized. Images with emission spectra for eCFP, eGFP and mcherry were acquired in 5-nm bins between 470 and 620 nm. 439, 488 and 561 nm laser lines were used to excite eCFP, eGFP and mcherry respectively. Images were linearly unmixed using reference spectra for eCFP, eGFP and mcherry with emission maxima at 477, 508 and 608 nm. Reference spectra were acquired from Neuro-2a cells transfected with either GaIT-eCFP or α4-mcherryβ2wt or α4wtβ2-eGFP during the same imaging session. Linear unmixing was used to separate all three emission spectra from each image. Linearly unmixed images were compiled into donor spectral bleed-through stacks, acceptor spectral bleed-through stacks, and sample image stacks.
The PixFRET ImageJ plugin was used to determine the eGFP and mcherry spectral bleedthrough (BT) values and to calculate the net FRET (nF) (equation 1) and normalized FRET (NFRET) at each pixel. With the background and bleed-through corrections set, the nF for each pixel as described by equation 1 was calculated and the data were presented as 32-bit images. nF was divided by the square root of eGFP and mcherry intensities (equation 2) to obtain the normalized FRET (NFRET) value at each pixel. FRET normalization was used to control for large differences in fluorophore expression within subcellular regions and between different cells in a dish.
where, nF=net FRET, IFRET=mcherry sensitized emission with 488 nm excitation, IeGFP=eGFP emission with 488 nm excitation, BTeGFP=spectral bleedthrough of eGFP emission into mcherry emission spectra at 488 nm excitation, Imcherry=mcherry emission with 561 nm excitation and BTmcherry=spectral bleedthrough of mcherry emission into eGFP emission spectra at 561 nm excitation. IFRET, IeGFP and Imcherry were obtained from Neuro-2a cells transfected with GaIT-eCFP+α4-mcherry+β2-eGFP. BTeGFP and BTmcherry values were obtained from Neuro-2a cells transfected with α4-mcherry+β2wt and α4wt+β2-eGFP respectively.
Histograms of NFRET (x-axis) versus number of pixels (y-axis) of each imaged cell were compiled for either the whole cell sections or the TG, TGN ROIs, demarcated by intensity-based thresholding of GaIT-eCFP fluorescence. Frequency histograms obtained in this way (omitting values of zero) were merged for all cells in each experimental group and fitted to two Gaussian components such that a minimum goodness of fit (R^2) value of 0.995 was achieved. Ratios of area under the curve for the two Gaussian components with high and low mean NFRET values were used to determine changes in receptor stoichiometry between experimental groups: NFRET histograms were fitted to Gaussian components, yielding the total pixel area under either the A1 (low mean NFRET fit) or A2 (high mean NFRET fit) components. For quantitative measurements of stoichiometry, we compared the fractional area (FA) for the low NFRET component in each case as given by the following equation:
where, FA=fractional area, A1=area under the curve for low mean NFRET Gaussian component and A2=area under the curve for high mean NFRET Gaussian component.
Due to variability resulting from cell passage number, we imaged untreated control cells on the same day to compare and evaluate the effects of drug exposure on stoichiometry.

[7] = test system: Neuro-2a cells; type: cell-based, mouse
Description: (§2) Neuro-2a cells were transfected with α4-eGFP (500 ng)+β2wt (500 ng)+GaIT-mcherry (250 ng) or pDSred2-ER (100 ng) and cells were incubated for 48 h with appropriate concentrations of nicotine, cytisine or DHβE.
In ImageJ, background was subtracted, and DSred2-ER fluorescence was thresholded and demarcated for each cell.

[8] = test system: Neuro-2a cells; type: cell-based, mouse; remark: listed apart in the source
Description: as §2
Two color fluorescence signals were separated with a dichroic and optical filters aligned in the emission path where green and red emission was separately aligned to the two halves of an EMCCD. Post-acquisition processing of images used Metamorph to demarcate TGN bodies and to extract number, size and intensity statistics.

[9] = target: T2, α4-GFPβ4-R348C nAChRs (Mus musculus, UniProt O70174+Q8R493, R348C); experiment: Whole-cell patch clamp of ACh currents in cortical neurons transfected with α4-GFPβ4-R348C; type: cell-based
T2 construct: expressed in transfected cells; host or cells: mouse cortical neurons (primary culture)
T2 sequence (O70174 31-629, stated change not applied): as the sequence (O70174 31-629) above
T2 sequence (Q8R493 21-495 R348C): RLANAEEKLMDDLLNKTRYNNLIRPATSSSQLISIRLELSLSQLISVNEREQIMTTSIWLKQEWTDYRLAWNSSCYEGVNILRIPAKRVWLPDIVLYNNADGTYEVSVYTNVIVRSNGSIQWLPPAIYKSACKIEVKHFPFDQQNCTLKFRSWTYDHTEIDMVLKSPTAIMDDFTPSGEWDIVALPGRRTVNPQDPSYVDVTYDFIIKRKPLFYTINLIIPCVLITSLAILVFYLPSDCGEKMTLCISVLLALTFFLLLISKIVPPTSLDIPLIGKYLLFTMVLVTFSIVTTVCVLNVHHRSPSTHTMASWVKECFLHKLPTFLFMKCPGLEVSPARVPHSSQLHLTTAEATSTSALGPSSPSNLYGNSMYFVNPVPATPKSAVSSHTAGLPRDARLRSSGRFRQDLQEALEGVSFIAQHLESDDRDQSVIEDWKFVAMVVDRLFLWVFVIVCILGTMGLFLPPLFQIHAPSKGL
Description: (§3) To correlate the fluorescence based insertion measurements with electrophysiological measurements, we performed whole-cell patch clamp recording from neurons in the preparation used for our fluorescence experiments, transfected either with α4-GFPβ4-WT or with α4-GFPβ4-R348C nAChRs. The successfully transfected neurons were identified with green fluorescence (FIG. 6. A, D of Richards et al.). Puffs of 300 μM ACh (0.1 s, 20 psi), typically give maximal currents in previous experiments and therefore provide a measure of nAChR number. ACh evoked inward currents in 100% (8/8) and 92% (11/12) of neurons transfected with α4-GFPβ4-WT and α4-GFPβ4-R348C nAChRs, respectively (FIG. 6B, 6E of Richards et al.). The α4-GFPβ4-R348C nAChR currents (120±33 pA, n=12) were only 40% of α4-GFPβ4-WT nAChR currents (310±72 pA, n=8) (p=0.02) (FIG. 6C of Richards et al.). Because variations among the size of neurons could complicate the data, we calculated current density (dividing ACh currents divided by membrane capacitance). The current density of […] (16.3±2.1 pA/pF, n=8) (p=0.001) (FIG. 6F of Richards et al.). Thus in cortical neurons, the R348C mutation produces a fairly consistent ˜2-fold decrease in α4β4-insertion rate and ˜2.5 fold decrease in ACh-induced currents.

[10] = target: T3, α4-GFPβ4-WT nAChRs (Mus musculus, UniProt O70174+Q8R493); experiment: Whole-cell patch clamp of ACh currents in cortical neurons transfected with α4-GFPβ4-WT; type: cell-based
T3 construct: expressed in transfected cells; host or cells: mouse cortical neurons (primary culture)
T3 sequence (O70174 31-629): as the sequence (O70174 31-629) above
T3 sequence (Q8R493 21-495): as the sequence (Q8R493 21-495 R348C) above, with C328R counted along it
Description: as §3

[11] = compared to untreated cells, 48 h exposure
[12] = compared with untreated cells, 48 h

SMILES: CNC1(c2ccccc2Cl)CCCCC1=O (centres unmarked) [ketamine]
- time within which antidepressant effects become established [1]: 1 to 2 h

SMILES: O=c1cccc2n1C[C@@H]1CNC[C@H]2C1 [Cytisine, cytisine]
- evoked currents as % of maximum currents induced by 500 μM nicotine [2]: < 0.1%
- fraction of the total receptor population activated [2]: < 0.1%
- increase in PM-localized nAChRs [3]: 3 fold and ~3.5 fold
- increase in the footprint/ER ratio [3]: ~1.5 fold and ~2 fold
- reduction in the ratio of nuclear to whole cell ATF6-eGFP fluorescence [4]: ~25%
- increase in ERES fluorescence / formation of ERES [5]: ~2 fold
- TG+TGN FA (fractional area of low NFRET component) [6]: 0.42
- whole cell FA (fractional area of low NFRET component) [6]: 0.30
- effect on peripheral ER area (in words) [7]: reduced
- reduction in the average ER area [7]: ~1.4 fold
- Number of TGN bodies [8]: no effect
- effect on the average intensity of TGN bodies (in words) [8]: significantly reduced
- effect on the number of TGN bodies (in words) [8]: failed to significantly affect

SMILES: CC(=O)OCC[N+](C)(C)C [ACh]
- ACh evoked inward currents ([9]; 300 μM ACh puffs (0.1 s, 20 psi), α4-GFPβ4-R348C): 120±33 pA
- neurons in which ACh evoked inward currents ([9]; 300 μM ACh, α4-GFPβ4-R348C (11/12)): 92%
- current density (ACh currents divided by membrane capacitance) ([9]; 300 μM ACh, α4-GFPβ4-R348C as printed): 16.3±2.1 pA/pF
- ACh evoked inward currents ([10]; 300 μM ACh puffs (0.1 s, 20 psi), α4-GFPβ4-WT): 310±72 pA
- neurons in which ACh evoked inward currents ([10]; 300 μM ACh, α4-GFPβ4-WT (8/8)): 100%
- current density (ACh currents divided by membrane capacitance) ([10]; 300 μM ACh, α4-GFPβ4-WT as printed): 6.3±1.4 pA/pF

SMILES: CO[C@H]1CC=C2CCN3CCC4=C(CC(=O)OC4)[C@]23C1 [DHβE, dihydro-β-erythroidine]
- nAChR activation (in words) [2]: activates no receptors
- effect on the footprint/ER ratio (in words) [3, 11]: no marked effects
- increase in the footprint/ER ratio [3, 11]: ~1.5 fold
- effect on PM-localized nAChRs (in words) ([3]; compared to untreated controls, 48 h exposure): small, but significant increase; also recorded: no marked effects
- reduction in the ratio of nuclear to whole cell ATF6-eGFP fluorescence ([4]; 10 or 100 μM, 48 h (both concentrations)): ~23%
- increase in ERES fluorescence / formation of ERES ([5]; compared to untreated control cells, co-expressed nAChRs): ~2 fold
- TG+TGN FA (fractional area of low NFRET component) ([6]; 10 μM DHβE, untreated cells 0.53): 0.37
- whole cell FA (fractional area of low NFRET component) ([6]; 10 μM DHβE, untreated cells 0.54): 0.45
- effect on nAChR stoichiometry ([6]; concentrations ranging from 0.1 to 1 μM): did not affect
- effect on peripheral ER area (in words) ([7]; compared to untreated controls, 48 h): did not significantly affect
- effect on the average intensity of TGN bodies (in words) [8, 12]: significantly reduced
- effect on the number of TGN bodies (in words) [8, 12]: failed to significantly affect
